In patent publication US20230089867A1, “CYCLIC PENTAMER COMPOUNDS AS PROPROTEIN CONVERTASE SUBTILISIN/KEXIN TYPE 9 (PCSK9) INHIBITORS FOR THE TREATMENT OF METABOLIC DISORDER” (Novartis AG, priority 2018, published 2023) one finds Max % inhibition and IC50 data, which are given here for 14 molecules.

The assay deals with human PCSK9 (Homo sapiens, UniProt Q8NBP7). Put plainly: PCSK9 ligand binding TR-FRET assay (interference with binding of human PCSK9 to human LDLR). As to conditions: for Max % inhibition: PCSK9 FRET assay, efficacy (Amax), 100% = 1 uM unlabeled human PCSK9, 0% = DMSO; for IC50: TR-FRET, human PCSK9 Alexa Fluor 647 / human LDLR extracellular domain-Europium Kryptate, read-out: PCSK9 FRET Assay IC50. A digest of the protocol: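 Threefold compound dilutions were pre-incubated 30 min with PCSK9, after which 4 nM Europium Kryptate-tagged human LDLR ectodomain was added for a further 2 h.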
Chain of human PCSK9 (Q8NBP7 153-692): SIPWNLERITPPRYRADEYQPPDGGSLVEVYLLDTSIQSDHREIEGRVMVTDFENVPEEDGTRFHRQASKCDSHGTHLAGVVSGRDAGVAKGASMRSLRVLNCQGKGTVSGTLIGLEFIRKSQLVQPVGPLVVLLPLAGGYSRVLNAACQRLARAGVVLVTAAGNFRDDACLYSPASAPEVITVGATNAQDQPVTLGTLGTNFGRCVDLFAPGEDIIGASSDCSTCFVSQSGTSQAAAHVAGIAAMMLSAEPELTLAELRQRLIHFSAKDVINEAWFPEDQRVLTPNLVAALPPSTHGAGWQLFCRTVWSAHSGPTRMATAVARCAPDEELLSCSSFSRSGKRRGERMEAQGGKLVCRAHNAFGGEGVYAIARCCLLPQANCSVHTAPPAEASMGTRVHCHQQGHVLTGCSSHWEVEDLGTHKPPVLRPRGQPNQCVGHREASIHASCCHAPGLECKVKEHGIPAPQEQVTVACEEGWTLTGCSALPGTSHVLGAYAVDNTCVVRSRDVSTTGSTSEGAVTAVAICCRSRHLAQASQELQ
Chain of human PCSK9 (Q8NBP7 31-152 partner limits assumed): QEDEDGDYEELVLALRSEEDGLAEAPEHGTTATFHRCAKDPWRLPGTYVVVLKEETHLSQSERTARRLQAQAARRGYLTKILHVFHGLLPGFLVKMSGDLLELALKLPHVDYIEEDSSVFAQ
(In general: Time-resolved FRET reads energy transfer from a long-lived donor to a nearby acceptor.)

SMILES strings stand for the structures.

`COC[C@@H]1NC(=O)[C@H](C)N(Cc2ccc(Cl)cc2Oc2ccc(-c3cnc(CN(C)C)n3C)cc2)C(=O)C[C@@H](C)C(=O)N(C)[C@H]2CCCC[C@@H]2NC(=O)C[C@H](Cc2ccc(Cl)cc2)N(C)C1=O` [Compound 64, (4S,7S,10S,14R,16aS,20aS)-11-(4-chloro-2-(4-(2-((dimethylamino)methyl)-1-methyl-1H-imidazol-5-yl)phenoxy)benzyl)-4-(4-chlorobenzyl)-7-(methoxymethyl)-5,10,14,16-tetramethylhexadecahydrobenzo[l][1,4,7,11,14]pentaazacyclooctadecine-2,6,9,12,15(3H)-pentaone]: the Max % inhibition amounted to 79.08% and the IC50 was 9 nM.
For `COC[C@@H]1NC(=O)[C@H](C)N(Cc2ccc(Cl)cc2Oc2ccc(-c3cnc(CN(C)C)n3C)cc2)C(=O)C[C@@H](CC2CC2)C(=O)N(C)[C@H]2CCCC[C@@H]2NC(=O)C[C@H](Cc2ccc(Cl)cc2)N(C)C1=O` [Compound 290, (4S,7S,10S,14R,16aS,20aS)-11-(4-chloro-2-(4-(2-((dimethylamino)methyl)-1-methyl-1H-imidazol-5-yl)phenoxy)benzyl)-4-(4-chlorobenzyl)-14-(cyclopropylmethyl)-7-(methoxymethyl)-5,10,16-trimethylhexadecahydrobenzo[l][1,4,7,11,14]pentaazacyclooctadecine-2,6,9,12,15(3H)-pentaone], in that order: 79.21% and 3.6 nM.
For `COC[C@@H]1NC(=O)[C@H](C)N(Cc2ccc(C)cc2Oc2ccc(-c3cnc(CN(C)C)n3C)cc2)C(=O)C[C@@H](Cc2ccccc2)C(=O)N(C)[C@@H](C)CNC(=O)C[C@H](Cc2ccc(Cl)cc2)N(C)C1=O` [Compound 240, (2S,5S,8S,13S,16R)-16-benzyl-8-(4-chlorobenzyl)-1-(2-(4-(2-((dimethylamino)methyl)-1-methyl-1H-imidazol-5-yl)phenoxy)-4-methylbenzyl)-5-(methoxymethyl)-2,7,13,14-tetramethyl-1,4,7,11,14-pentaazacyclooctadecane-3,6,10,15,18-pentaone], in that order: 99.28% and 0.9 nM.
For `CCc1ccc(CN2C(=O)C[C@@H](Cc3ccccc3)C(=O)N(C)[C@H]3CCCC[C@@H]3NC(=O)C[C@H](Cc3ccc(Cl)cc3)N(C)C(=O)[C@H](COC)NC(=O)[C@@H]2C)c(Oc2ccc(-c3cnc([C@@H](C)N(C)C)n3C)cc2)c1` [Compound 85, (4S,7S,10S,14R,16aS,20aS)-14-benzyl-4-(4-chlorobenzyl)-11-(2-(4-(2-((R)-1-(dimethylamino)ethyl)-1-methyl-1H-imidazol-5-yl)phenoxy)-4-ethylbenzyl)-7-(methoxymethyl)-5,10,16-trimethylhexadecahydrobenzo[l][1,4,7,11,14]pentaazacyclooctadecine-2,6,9,12,15(3H)-pentaone], in that order: 114.68% and 0.9 nM.
Turning to `COC[C@@H]1NC(=O)[C@H](C)N(Cc2ccc(Cl)cc2Oc2ccc(-c3cnc(CN4CCCC4)n3C)cc2)C(=O)C[C@@H](Cc2ccccc2)C(=O)N(C)[C@@H](CCCCNC(C)=O)CNC(=O)C[C@H](Cc2ccc(Cl)cc2)N(C)C1=O.O=C(O)C(F)(F)F` [Compound 217, N-(4-((2S,5S,8S,13S,16R)-16-benzyl-1-(4-chloro-2-(4-(1-methyl-2-(pyrrolidin-1-ylmethyl)-1H-imidazol-5-yl)phenoxy)benzyl)-8-(4-chlorobenzyl)-5-(methoxymethyl)-2,7,14-trimethyl-3,6,10,15,18-pentaoxo-1,4,7,11,14-pentaazacyclooctadecan-13-yl)butyl)acetamide trifluoroacetate], the Max % inhibition is recorded as 95.74% and the 50% inhibitory concentration (IC50) worked out at 0.7 nM.
Take `COC[C@@H]1NC(=O)[C@H](C)N(Cc2ccc(Cl)cc2Oc2ccc(-c3cnc(CN(C)C)n3C)cc2)C(=O)C[C@@H](Cc2ccon2)C(=O)N(C)[C@H]2CCCC[C@@H]2NC(=O)C[C@H](Cc2ccc(Cl)cc2)N(C)C1=O` [Compound 18, (4S,7S,10S,14R,16aS,20aS)-11-(4-chloro-2-(4-(2-((dimethylamino)methyl)-1-methyl-1H-imidazol-5-yl)phenoxy)benzyl)-4-(4-chlorobenzyl)-14-(isoxazol-3-ylmethyl)-7-(methoxymethyl)-5,10,16-trimethylhexadecahydrobenzo[l][1,4,7,11,14]pentaazacyclooctadecine-2,6,9,12,15(3H)-pentaone]: the Max % inhibition came out at 86.12% and the IC50 was 1.1 nM.
In the case of `COC[C@@H]1NC(=O)[C@H](C)N(Cc2ccc(Cl)cc2Oc2ccc(-c3cnc(C4CCCN4C)n3C)cc2)C(=O)C[C@@H](Cc2ccccc2)C(=O)N(C)[C@@H](C)CNC(=O)C[C@H](Cc2ccc(Cl)cc2)N(C)C1=O` (stereo partly drawn) [Compound 28, (2S,5S,8S,13S,16R)-16-benzyl-1-(4-chloro-2-(4-(1-methyl-2-(1-methylpyrrolidin-2-yl)-1H-imidazol-5-yl)phenoxy)benzyl)-8-(4-chlorobenzyl)-5-(methoxymethyl)-2,7,13,14-tetramethyl-1,4,7,11,14-pentaazacyclooctadecane-3,6,10,15,18-pentaone], the Max % inhibition was 102.04% and the IC50 stood at 3.6 nM.
For `COC[C@@H]1NC(=O)[C@H](C)N(Cc2ccc(Cl)cc2Oc2ccc(-c3cnc(CN(C)C)n3C)cc2)C(=O)C[C@@H](Cc2ccccc2)C(=O)N(C)[C@@H]2C[C@@H]2NC(=O)C[C@H](Cc2ccc(Cl)cc2)N(C)C1=O` [Compound 77, (1S,5S,8S,11S,15R,18R)-15-benzyl-12-(4-chloro-2-(4-(2-((dimethylamino)methyl)-1-methyl-1H-imidazol-5-yl)phenoxy)benzyl)-5-(4-chlorobenzyl)-8-(methoxymethyl)-6,11,17-trimethyl-2,6,9,12,17-pentaazabicyclo[16.1.0]nonadecane-3,7,10,13,16-pentaone], in that order: 104.08% and 9 nM.
With `COC[C@@H]1NC(=O)[C@H](C)N(Cc2ccc(Cl)cc2Oc2ccc(-c3cnc(CN(C)C)n3C)cc2)C(=O)CCC(=O)N(C)CCNC(=O)C[C@H](Cc2ccc(Cl)cc2)N(C)C1=O` [Compound 141, (2S,5S,8S)-1-(4-chloro-2-(4-(2-((dimethylamino)methyl)-1-methyl-1H-imidazol-5-yl)phenoxy)benzyl)-8-(4-chlorobenzyl)-5-(methoxymethyl)-2,7,14-trimethyl-1,4,7,11,14-pentaazacyclooctadecane-3,6,10,15,18-pentaone], the Max % inhibition turned out to be 102.37% and the IC50 is 882 nM.
For `COC[C@@H]1NC(=O)[C@H](CCCN2CCOCC2)N(Cc2ccc(Cl)cc2Oc2ccc(-c3cnc(CN(C)C)n3C)cc2)C(=O)C[C@@H](Cc2ccccc2)C(=O)N(C)[C@H]2CCCC[C@@H]2NC(=O)C[C@H](Cc2ccc(Cl)cc2)N(C)C1=O` [Compound 272, (4S,7S,10S,14R,16aS,20aS)-14-benzyl-11-(4-chloro-2-(4-(2-((dimethylamino)methyl)-1-methyl-1H-imidazol-5-yl)phenoxy)benzyl)-4-(4-chlorobenzyl)-7-(methoxymethyl)-5,16-dimethyl-10-(3-morpholinopropyl)hexadecahydrobenzo[l][1,4,7,11,14]pentaazacyclooctadecine-2,6,9,12,15(3H)-pentaone], in that order: 98.30% and 1.2 nM.
For `COC[C@@H]1NC(=O)[C@H](CCCNC(=O)OC(C)(C)C)N(Cc2ccc(Cl)cc2Oc2ccc(-c3cnc(CN(C)C)n3C)cc2)C(=O)C[C@@H](Cc2ccccc2)C(=O)N(C)[C@@H](C)CNC(=O)C[C@H](Cc2ccc(Cl)cc2)N(C)C1=O` [Compound 4, tert-butyl (3-((2S,5S,8S,13S,16R)-16-benzyl-1-(4-chloro-2-(4-(2-((dimethylamino)methyl)-1-methyl-1H-imidazol-5-yl)phenoxy)benzyl)-8-(4-chlorobenzyl)-5-(methoxymethyl)-7,13,14-trimethyl-3,6,10,15,18-pentaoxo-1,4,7,11,14-pentaazacyclooctadecan-2-yl)propyl)carbamate], in that order: 97.50% and 2.9 nM.
For `CC[C@H]1C(=O)N[C@@H](COC)C(=O)N(C)[C@@H](Cc2ccc(Cl)c(F)c2)CC(=O)NC[C@H](C)N(C)C(=O)[C@H](Cc2ccccc2)CC(=O)N1Cc1ccc(Cl)cc1Oc1ccc(-c2cnc(CN(C)C)n2C)cc1` [Compound 209, (2S,5S,8S,13S,16R)-16-benzyl-1-(4-chloro-2-(4-(2-((dimethylamino)methyl)-1-methyl-1H-imidazol-5-yl)phenoxy)benzyl)-8-(4-chloro-3-fluorobenzyl)-2-ethyl-5-(methoxymethyl)-7,13,14-trimethyl-1,4,7,11,14-pentaazacyclooctadecane-3,6,10,15,18-pentaone], in that order: 98.10% and 4.9 nM.
For `Cc1c(CN2CCCC2)cncc1-c1ccc(Oc2cc(Cl)ccc2CN2C(=O)C[C@@H](Cc3ccccc3)C(=O)N(C)[C@@H](C)CNC(=O)C[C@H](Cc3ccc(Cl)cc3)N(C)C(=O)[C@H](CO)NC(=O)[C@@H]2C)cc1` [Compound 146, (2S,5S,8S,13S,16R)-16-benzyl-1-(4-chloro-2-(4-(4-methyl-5-(pyrrolidin-1-ylmethyl)pyridin-3-yl)phenoxy)benzyl)-8-(4-chlorobenzyl)-5-(hydroxymethyl)-2,7,13,14-tetramethyl-1,4,7,11,14-pentaazacyclooctadecane-3,6,10,15,18-pentaone], the Max % inhibition came to 51.67% and the IC50 was 3.1 nM.
For `C[C@H]1CNC(=O)C[C@H](Cc2ccc(Cl)cc2)N(C)C(=O)[C@H](CO)NC(=O)[C@H](C)N(Cc2ccc(Cl)cc2Oc2ccc3c(c2)C(=O)N(C2CCN(CC4CC4)CC2)C3)C(=O)C[C@@H](Cc2ccccc2)C(=O)N1C` [Compound 139, (2S,5S,8S,13S,16R)-16-benzyl-1-(4-chloro-2-((2-(1-(cyclopropylmethyl)piperidin-4-yl)-3-oxoisoindolin-5-yl)oxy)benzyl)-8-(4-chlorobenzyl)-5-(hydroxymethyl)-2,7,13,14-tetramethyl-1,4,7,11,14-pentaazacyclooctadecane-3,6,10,15,18-pentaone], in that order: 65.69% and 5.7 nM.

For orientation: IC50 means the concentration that gives 50% inhibition.
